Measurements from ChEMBL document CHEMBL3792365, “Dioxol and dihydrodioxin analogs of 2- and 3-phenylacetonitriles as potent anti-cancer agents with nanomolar activity against a variety of human cancer cells” (2016).

Tests used:
Type in all cases: functional
NCI-H226 = test: Growth inhibition of human NCI-H226 cells at 10 uM after 48 hrs by sulforhodamine B assay; conditions: NCI-H226, 48 h, values are per cent of control
NCI-H23 = test: Growth inhibition of human NCI-H23 cells at 10 uM after 48 hrs by sulforhodamine B assay; conditions: NCI-H23, 48 h, values are per cent of control
MDA-MB-468 = test: Growth inhibition of human MDA-MB-468 cells at 10 uM after 48 hrs by sulforhodamine B assay; conditions: MDA-MB-468, 48 h, values are per cent of control
SN12C = test: Growth inhibition of human SN12C cells at 10 uM after 48 hrs by sulforhodamine B assay; conditions: values are per cent of control
NCI-H522 = test: Growth inhibition of human NCI-H522 cells at 10 uM after 48 hrs by sulforhodamine B assay; conditions: NCI-H522, 48 h, values are per cent of control
[1] = Growth inhibition of human SW620 cells at 10 uM after 48 hrs by sulforhodamine B assay; conditions: SW-620, 48 h, values are per cent of control
[2] = Growth inhibition of human HOP62 cells at 10 uM after 48 hrs by sulforhodamine B assay; conditions: HOP-62, 48 h, values are per cent of control
[3] = Growth inhibition of human HCT116 cells at 10 uM after 48 hrs by sulforhodamine B assay; conditions: HCT-116, 48 h, values are per cent of control
[4] = Growth inhibition of human SNB19 cells at 10 uM after 48 hrs by sulforhodamine B assay; conditions: SNB-19, 48 h, values are per cent of control
[5] = Growth inhibition of human OVCAR4 cells at 10 uM after 48 hrs by sulforhodamine B assay; conditions: OVCAR-4, 48 h, values are per cent of control
[6] = Growth inhibition of human Caki1 cells at 10 uM after 48 hrs by sulforhodamine B assay; conditions: CAKI-1, 48 h, values are per cent of control
[7] = Growth inhibition of human SF295 cells at 10 uM after 48 hrs by sulforhodamine B assay; conditions: SF-295, 48 h, values are per cent of control
SR = test: Growth inhibition of human SR cells at 10 uM after 48 hrs by sulforhodamine B assay; conditions: values are per cent of control
SK-MEL-2 = test: Growth inhibition of human SK-MEL-2 cells at 10 uM after 48 hrs by sulforhodamine B assay; conditions: SK-MEL-2, 48 h, values are per cent of control
T47D = test: Growth inhibition of human T47D cells at 10 uM after 48 hrs by sulforhodamine B assay; conditions: values are per cent of control
[8] = Growth inhibition of human TK10 cells at 10 uM after 48 hrs by sulforhodamine B assay; conditions: TK-10, 48 h, values are per cent of control
[9] = Growth inhibition of human Hs 578T cells at 10 uM after 48 hrs by sulforhodamine B assay; conditions: values are per cent of control
[10] = Growth inhibition of human UACC62 cells at 10 uM after 48 hrs by sulforhodamine B assay; conditions: UACC-62, 48 h, values are per cent of control
K562 = test: Growth inhibition of human K562 cells at 10 uM after 48 hrs by sulforhodamine B assay; conditions: K562, 48 h, values are per cent of control
[11] = Growth inhibition of human SKOV3 cells at 10 uM after 48 hrs by sulforhodamine B assay; conditions: SK-OV-3, 48 h, values are per cent of control
[12] = Growth inhibition of human SNB75 cells at 10 uM after 48 hrs by sulforhodamine B assay; conditions: SNB-75, 48 h, values are per cent of control
[13] = Growth inhibition of human HCT15 cells at 10 uM after 48 hrs by sulforhodamine B assay; conditions: HCT-15, 48 h, values are per cent of control
SK-MEL-28 = test: Growth inhibition of human SK-MEL-28 cells at 10 uM after 48 hrs by sulforhodamine B assay; conditions: SK-MEL-28, 48 h, values are per cent of control
[14] = Growth inhibition of human HCC2998 cells at 10 uM after 48 hrs by sulforhodamine B assay; conditions: HCC 2998, 48 h, values are per cent of control
[15] = Growth inhibition of human SF268 cells at 10 uM after 48 hrs by sulforhodamine B assay; conditions: SF-268, 48 h, values are per cent of control
[16] = Growth inhibition of human COLO205 cells at 10 uM after 48 hrs by sulforhodamine B assay; conditions: COLO 205, 48 h, values are per cent of control
[17] = Growth inhibition of human NCI-ADR-RES cells at 10 uM after 48 hrs by sulforhodamine B assay; conditions: values are per cent of control
[18] = Growth inhibition of human DU145 cells at 10 uM after 48 hrs by sulforhodamine B assay; conditions: DU-145, 48 h, values are per cent of control
786-0 = test: Growth inhibition of human 786-0 cells at 10 uM after 48 hrs by sulforhodamine B assay; conditions: 786-0, 48 h, values are per cent of control
NCI-H322M = test: Growth inhibition of human NCI-H322M cells at 10 uM after 48 hrs by sulforhodamine B assay; conditions: values are per cent of control
MDA-MB-435 = test: Growth inhibition of human MDA-MB-435 cells at 10 uM after 48 hrs by sulforhodamine B assay; conditions: MDA-MB-435, 48 h, values are per cent of control
NCI-H460 = test: Growth inhibition of human NCI-H460 cells at 10 uM after 48 hrs by sulforhodamine B assay; conditions: NCI-H460, 48 h, values are per cent of control
A498 = test: Growth inhibition of human A498 cells at 10 uM after 48 hrs by sulforhodamine B assay; conditions: A498, 48 h, values are per cent of control
[19] = Growth inhibition of human SF539 cells at 10 uM after 48 hrs by sulforhodamine B assay; conditions: SF-539, 48 h, values are per cent of control
U-251 = test: Growth inhibition of human U251 cells at 10 uM after 48 hrs by sulforhodamine B assay; conditions: U-251, 48 h, values are per cent of control
M14 = test: Growth inhibition of human M14 cells at 10 uM after 48 hrs by sulforhodamine B assay; conditions: M14, 48 h, values are per cent of control
[20] = Growth inhibition of human RXF393 cells at 10 uM after 48 hrs by sulforhodamine B assay; conditions: RXF 393, 48 h, values are per cent of control
[21] = Growth inhibition of human OVCAR5 cells at 10 uM after 48 hrs by sulforhodamine B assay; conditions: OVCAR-5, 48 h, values are per cent of control
[22] = Growth inhibition of human IGROV1 cells at 10 uM after 48 hrs by sulforhodamine B assay; conditions: IGROV-1, 48 h, values are per cent of control
ACHN = test: Growth inhibition of human ACHN cells at 10 uM after 48 hrs by sulforhodamine B assay; conditions: values are per cent of control

Row | Compound | growth, % of control at 10 µM (NCI-H226) [%] | growth, % of control at 10 µM (NCI-H23) [%] | growth, % of control at 10 µM (MDA-MB-468) [%] | growth, % of control at 10 µM (SN12C) [%] | growth, % of control at 10 µM (NCI-H522) [%] | growth, % of control at 10 µM [1] [%] | growth, % of control at 10 µM [2] [%] | growth, % of control at 10 µM [3] [%] | growth, % of control at 10 µM [4] [%] | growth, % of control at 10 µM [5] [%] | growth, % of control at 10 µM [6] [%] | growth, % of control at 10 µM [7] [%] | growth, % of control at 10 µM (SR) [%] | growth, % of control at 10 µM (SK-MEL-2) [%] | growth, % of control at 10 µM (T47D) [%] | growth, % of control at 10 µM [8] [%] | growth, % of control at 10 µM [9] [%] | growth, % of control at 10 µM [10] [%] | growth, % of control at 10 µM (K562) [%] | growth, % of control at 10 µM [11] [%] | also measured
1 | COc1ccc(/C=C(\C#N)c2ccc3c(c2)OCO3)c2ccccc12 | 38.5 | 49.9 | -14.5 | 38.6 | 1.4 | 10.6 | 44.4 | 21.1 | 36.1 | 49.7 | 30.8 | 5.6 | 18.4 | 13.1 | 38.2 | 43.8 | -14.1 | 25.1 | 19.1 | 26.9 | growth, % of control at 10 µM [12]: -3.1%; growth, % of control at 10 µM [13]: 21.4%; growth, % of control at 10 µM (SK-MEL-28): 43.6%; growth, % of control at 10 µM [14]: 45.7%; growth, % of control at 10 µM [15]: 34%; growth, % of control at 10 µM [16]: 7.6%; growth, % of control at 10 µM [17]: 10.5%; growth, % of control at 10 µM [18]: 14.9%; growth, % of control at 10 µM (786-0): 40.2%; growth, % of control at 10 µM (NCI-H322M): 34.3%; growth, % of control at 10 µM (MDA-MB-435): -26.3%; growth, % of control at 10 µM (NCI-H460): 13.2%; growth, % of control at 10 µM (A498): -8.4%; growth, % of control at 10 µM [19]: -42.9%; growth, % of control at 10 µM (U-251): 18.7%; growth, % of control at 10 µM (M14): 16.2%; growth, % of control at 10 µM [20]: -17.7%; growth, % of control at 10 µM [21]: 55.7%; growth, % of control at 10 µM [22]: 36.3%; growth, % of control at 10 µM (ACHN): 44.7%
2 | N#C/C(=C\c1ccc2c(c1)OCO2)c1ccc2c(c1)OCO2 | 94.9 | 83.2 | 54.9 | 90.7 | 76.4 | 42.9 | 76.7 | 57.5 | 95.9 | 89.7 | 66.8 | 76.5 | 26.2 | 63.5 | 67.7 | 91 | 89.7 | 69.4 | 24.9 | 85.5 | growth, % of control at 10 µM [12]: 94.3%; growth, % of control at 10 µM [13]: 43.9%; growth, % of control at 10 µM (SK-MEL-28): 88.5%; growth, % of control at 10 µM [14]: 72.3%; growth, % of control at 10 µM [15]: 81.2%; growth, % of control at 10 µM [16]: 59.8%; growth, % of control at 10 µM [17]: 41%; growth, % of control at 10 µM [18]: 92.5%; growth, % of control at 10 µM (786-0): 90%; growth, % of control at 10 µM (NCI-H322M): 106%; growth, % of control at 10 µM (MDA-MB-435): -5.7%; growth, % of control at 10 µM (NCI-H460): 83.6%; growth, % of control at 10 µM (A498): 73.7%; growth, % of control at 10 µM [19]: 79.4%; growth, % of control at 10 µM (U-251): 77.2%; growth, % of control at 10 µM (M14): 50.8%; growth, % of control at 10 µM [20]: 94.7%; growth, % of control at 10 µM [21]: 97.9%; growth, % of control at 10 µM [22]: 66.1%; growth, % of control at 10 µM (ACHN): 96.2%
